Assay results as given in PMC12292862 (Biomedicines, 2025).
Entries after “also recorded” stand apart in the source; their conditions may differ. Marks after values point to notes of the source that are not given here.

Key:
[1] = target: T1, COX-1 (Ovis aries, UniProt P05979); assay: In vitro colorimetric COX (ovine) inhibitor-screening assay, COX-1; format: biochemical; conditions: ovine COX-1, tested at 50, 100 and 150 µg/mL
T1 construct: purchased Cayman Chemical 760111
T1 sequence (P05979 25-600): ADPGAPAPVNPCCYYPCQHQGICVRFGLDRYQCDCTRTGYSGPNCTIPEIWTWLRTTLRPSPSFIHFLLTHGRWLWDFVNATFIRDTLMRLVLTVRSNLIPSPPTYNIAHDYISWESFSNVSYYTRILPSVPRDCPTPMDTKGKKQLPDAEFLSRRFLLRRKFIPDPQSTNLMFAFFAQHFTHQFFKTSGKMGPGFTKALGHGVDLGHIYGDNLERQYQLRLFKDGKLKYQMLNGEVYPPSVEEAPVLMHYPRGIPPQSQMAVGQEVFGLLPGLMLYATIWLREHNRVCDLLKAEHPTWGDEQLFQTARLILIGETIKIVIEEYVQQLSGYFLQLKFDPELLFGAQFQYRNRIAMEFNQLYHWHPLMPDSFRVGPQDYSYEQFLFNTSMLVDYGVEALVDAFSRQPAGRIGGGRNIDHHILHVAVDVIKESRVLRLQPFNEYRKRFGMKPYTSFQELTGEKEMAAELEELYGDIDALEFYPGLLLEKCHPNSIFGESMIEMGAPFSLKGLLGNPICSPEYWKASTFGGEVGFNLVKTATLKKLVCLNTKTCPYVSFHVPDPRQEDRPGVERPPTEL
Experimental: The test compounds’ ability to suppress COX-1 and COX-2 was evaluated using a colorimetric COX (ovine) inhibitor-screening method (Cayman Chemical, Item Number 760111). In brief, 150 μL of assay buffer, 10 μL of heme, 10 μL of enzyme (COX-1 or COX-2), and 10 μL of compound (1 mg/mL) make up the reaction mixture. In a final volume of […], the test compounds were evaluated at doses of 50, 100, and 150 μg/mL. The cyclooxygenase peroxidase component is used in the experiment. By monitoring the appearance of oxidized N, N, […] (TMPD) at 590 nm, the peroxidase activity is measured […]. […] The following formula was used to determine the % COX inhibition: The COX inhibition activity percentage is equal to (1 − T/C ×100), where T is the inhibitor well’s absorbance and C is the starting activity’s absorbance at 100% without the inhibitor well.

[2] = system: IL-1α; assay: Serum IL-1α (ELISA) in carrageenan-injected rats; format: in vivo, rat; conditions: compounds 200 mg/kg i.p., indomethacin 10 mg/kg, mean ± SD
Experimental: (§1) The selective pro-inflammatory cytokines were measured quantitatively using rat-specific Enzyme-Linked Immunosorbent Assay (ELISA) kits from Thermo Scientific™ (Waltham, MA, USA) with CAT. No. ERCRP for CRP; from Elabscience with Cat. No. E-EL-R2856 for TNF-α and with Cat. No. E-EL-R0011 for IL-1α; from CUSABIO, Houston, TX, USA, with Cat. No. CSB-E04640r for IL-6; and from My BioSource Co, USA, with Cat. No. MBS825017 for IL-1β, with Cat. No. MBS753621 for rat cyclooxygenase 1, and with Cat. No. MBS266603 for rat cyclooxygenase 2. Meanwhile, an ovine COX inhibitor-screening in vitro assay (item number 760111) was obtained from Cayman Chemical (Ann Arbor, MI, USA). We purchased malondialdehyde (MDA), glutathione (GSH), and superoxide dismutase (SOD) detection kits from Nanjing Jiancheng Bio-Technology Co. Ltd. (Nanjing, China).
(§2) At the end of the experiments, the rats were subjected to anesthesia with chloroform and then sacrificed. Blood was obtained via heart puncture for biochemical analysis. Following the animals’ sacrifice, the paws were taken out, decalcified, and stored in a 10% formalin solution. To prepare the tissue samples, they were sliced into thicknesses of 5 µm. Hematoxylin and eosin dyes were used to create the histology slides, which were then examined using a photomicroscope (Meiji Techno®, Iruma, Japan) for pathological alterations. The presence of inflammation was documented. Protease/phosphatase inhibitor cocktail in cold phosphate-buffered saline (1:4) (pH 7, 0.01 mol/L) (Cat. No. PPC1010, Sigma-Aldrich) was used to homogenize each rat’s paw piece in a glass homogenizer. After filtering and centrifuging the resultant homogenate for five minutes at 5000× g, oxidative stress biomarkers like GSH, SOD, and MDA were measured. The trials were repeated three times.

[3] = system: IL-6; assay: Serum IL-6 (ELISA) in carrageenan-injected rats; format: in vivo, rat; conditions: compounds 200 mg/kg i.p., indomethacin 10 mg/kg, mean ± SD
Experimental: as §1, §2

[4] = system: rat paw tissue; assay: Histomorphometry lesion scores of paw tissue sections; format: in vivo; conditions: vs carrageenan group; for inflammation scores: Figure 11A; for total lesion scores: Figure 11D
[5] = target: bovine serum albumin (Bos taurus, UniProt P02769); assay: Bovine serum albumin denaturation inhibition assay; conditions: 50–1000 µg/mL; Figure 2A; result in words
Sequence of bovine serum albumin (P02769 25-607): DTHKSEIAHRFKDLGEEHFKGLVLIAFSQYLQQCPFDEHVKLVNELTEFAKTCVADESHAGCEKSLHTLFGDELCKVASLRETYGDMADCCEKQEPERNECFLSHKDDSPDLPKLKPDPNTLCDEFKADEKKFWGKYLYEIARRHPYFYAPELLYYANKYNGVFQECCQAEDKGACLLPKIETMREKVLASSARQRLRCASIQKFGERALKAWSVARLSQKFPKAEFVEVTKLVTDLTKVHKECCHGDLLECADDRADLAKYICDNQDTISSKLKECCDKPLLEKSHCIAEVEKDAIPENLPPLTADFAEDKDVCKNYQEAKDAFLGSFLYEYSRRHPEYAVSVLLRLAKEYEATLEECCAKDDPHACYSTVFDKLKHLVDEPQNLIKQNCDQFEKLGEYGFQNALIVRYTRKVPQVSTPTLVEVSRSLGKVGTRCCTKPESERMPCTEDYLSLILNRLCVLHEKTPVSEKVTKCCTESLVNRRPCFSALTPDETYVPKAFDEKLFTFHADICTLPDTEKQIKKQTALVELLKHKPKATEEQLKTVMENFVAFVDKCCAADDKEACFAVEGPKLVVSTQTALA
Experimental: A bovine serum albumin assay was conducted using the previously mentioned technique. Synthesized compounds were dissolved in 2% Tween 80 saline solution (v/v) to create a solution at different doses of 50, 100, 200, 400, 800, and 1000 μg/mL. To prepare the test control sample (0.5 mL), 0.45 mL of 5% w/v bovine serum albumin was dissolved in 0.05 mL of distilled water. A product control solution was made by mixing 0.45 mL of Tween 80 with 0.50 mL of the test sample. 0.45 mL of bovine serum albumin and 0.50 mL of synthesized compounds made up the […] test solution. […] A pH of 6.3 was adjusted using 1 N HCl. Every solution was heated for 3 min at 60 °C after being kept at 37 °C for 20 min. Samples were then allowed to cool, and their absorbance at 660 nm was measured. Three duplicates of the procedure were carried out, and the percentage inhibition of denaturation of the bovine serum albumin was calculated using the following formula:%Inhibition = ((Absorbance Control − Absorbance Sample)/(Absorbance control)) × 100.

[6] = system: egg albumin; assay: Egg albumin protein denaturation inhibition assay; conditions: 50–1000 µg/mL; Figure 2B; result in words
Experimental: To determine the egg albumin protein denaturation inhibition assay, the previously mentioned approach was used. Egg albumin (0.2 mL), 2.8 mL of phosphate-buffered saline (pH 6.4), and 2 mL of synthesized compound solutions in various concentrations were added to 5 mL of reaction mixture for this experiment. […] The reaction solutions were heated to 37 °C for 15 min, then to 70 °C for 5 min. After cooling, the absorbance of the solutions was measured at 660 nm. The experiment was conducted in triplicate, and the percentage inhibition of denaturation of the protein was calculated using the following formula:%Inhibition = ((Absorbance Control − Absorbance Sample)/(Absorbance control)) × 100.

Row | SMILES | COX-1 inhibition % (mean activity) [1] [%] | IL-1α [2] | IL-6 [3] | inflammation scores [4] | total lesion scores [4] | inhibition of bovine serum albumin denaturation [5] | inhibition of egg albumin protein denaturation [6] | IL-6 ([3]; listed as C3) | inflammation scores ([4]; listed as compound 3) | edema scores ([4]; Figure 11B) | vascular alteration scores ([4]; Figure 11C)
1 | NC1=NC2(CCCCCC2)n2nc(C(=O)Nc3ccc(S(N)(=O)=O)cc3)nc2N1 [Compound 1, 5′-Amino-N-(4-sulfamoylphenyl). -1′H-spiro[cycloheptane-1,7′-[1,2,4]triazolo[1,5-a][1,3,5] -triazine] -2′-carboxamide] | 70 | 56.97 ± 0.79 ^b pg/mL | 14.44 ± 0.26 ^b pg/mL | significantly reduced inflammation scores | reduced total lesion scores significantly |  |  |  |  |  | 
2 | CC1(C)CC(=O)CC2(C1)N=C(N)Nc1nc(C(=O)Nc3ccc(S(N)(=O)=O)cc3)nn12 (stereo not drawn) [Compound 2] | 69 | 62.82 ± 0.94 ^b pg/mL | 16.14 ± 0.16 ^b pg/mL |  |  | moderate inhibition; also recorded: superior percentage inhibition of protein denaturation | moderate inhibition; also recorded: superior percentage inhibition of protein denaturation |  |  |  | 
3 | NC1=NC2(c3ccccc3Cc3ccccc32)n2nc(C(=O)Nc3ccc(S(N)(=O)=O)cc3)nc2N1 [Compound 3] | 70 | 40.66 ± 0.43 ^b pg/mL | 11.39 ± 0.23 pg/mL | approaching those of the normal control group | reduced total lesion scores significantly; also recorded: comparable to the normal control group | highest protective effect; also recorded: superior percentage inhibition of protein denaturation | highest protective effect; also recorded: superior percentage inhibition of protein denaturation | 11.39 ± 0.23 ^b pg/mL | significantly reduced inflammation scores | comparable to those of the control group | near-normal levels
